Source: patent US12102616B2, “Psilocin mucate” (LOBE SCIENCES LTD., priority 2022, dated 2024)
Several values for one entry are separate records, joined by “and”; a condition that tells them apart may be missing. Equal entries are not always repeated. Entries after “also recorded” stand apart in the source; their conditions may differ. Where two headings read alike, the source gives them in different places.

Tests used:
[1] = Phase one single-dose pharmacokinetic study of capsules containing psilocin mucic acid conjugate (plasma psilocin)
[2] = Stability studies on psilocin mucate capsule over a 12 month period; format: physicochemical; conditions: for Appearance POL-0018, Product / Assay TM-22-0392 (% Label Claim) / Total Impurities / Water Content by cKF TM-22-0012, Mean (2) / Water Content by cKF TM-22-0012, Prep 1 and 2 / Impurities TM-22-0392 (individual impurities): capsules
Method: Additional stability studies were performed on psilocin mutate (also known as psilocin mucic acid salt or conjugate or psilocin galactaric acid salt or conjugate) capsule over a 12 month period.
Appearance was evaluated by viewing of the sample on a watchglass over a black and white background.
Assay conditions for Test/Method TM-022-0392 assessing stability and impurities were as follows: • Mobile phase: MPA: 945 mL water, 5 mL H3PO4, pH to 5.7 with NaOH; MPB: Acetonitrile • Diluent: 80:20 Water:MeOH • Standard: 0.4 mg/mL Psilocin Mucic RS in Diluent • Sample: 0.4 mg/mL Psilocin Mucic API in Diluent • HPLC Conditions are depicted in Table 3.
• System suit: RSD NMT 2.0% (5 injections), Tailing NMT 2.0, Plate count NLT 10000
Calculations were against a bracketing external standard.
Identity of psilocin mucate was verified by ultraviolet (UV) assessment, wherein the UV spectrum of the main peak in the standard matched the UV spectrum of the main peak in the sample and by retention time wherein the retention time ratio was 0.98-1.02.

healthy subjects = experiment: Mood assessment, MMSE test and adverse events in the phase one study
Swiss Albino Mice = experiment: 28-day oral (gavage) toxicity study with 14-day recovery
[3] = Usona's investigator's brochure; cited from earlier work
[4] = cited from earlier work; for AUC / Tmax / Cmax: psilocin
[5] = plasma psilocin, 2 mg p.o. PM fasted
[6] = single oral dose equivalent to 2 mg psilocin
[7] = 2, 10 and 20 mg/kg bw/day oral, 28 days
[8] = females G4R vs G1R, considered not related
[9] = males G4R vs G1R, considered not related
[10] = 0.224 mg/kg p.o. PY fasted by Hasler

CN(C)CCc1c[nH]c2cccc(O)c12.O=C(O)[C@@H](O)[C@H](O)[C@H](O)[C@@H](O)C(=O)O [psilocin mucate]
food effect upon oral administration ([1]; from comparison with published psilocybin studies): no food effect | Cmax as compared to an equal amount of psilocin generated by the metabolism of psilocybin ([1]; oral): higher Cmax | decrease in Tmax as compared to an equivalent formulation of psilocybin ([1]; oral): ≥ 2 fold | delivered concentrations of psilocin compared with intravenous psilocybin ([1]; oral formulation): equivalent to intravenous doses of psilocybin | patient-to-patient variability as compared to psilocybin treatment ([1]; oral formulation): decreased patient-to-patient variability | AUC [1, 5]: 11.189 μG H/L | Tmax [1, 5]: 0.75 h | Cmax ([1]; plasma psilocin, 2 mg p.o. PM fasted, psilocin dose 2 mg, 0.026 mg/kg p.o.): 3.66 ng/mL | time until psilocin is essentially eliminated from circulation ([1]; single oral capsule, 2 mg psilocin equivalent): less than 12 hours | stable for (duration of stability) [2]: at least 12 months | Appearance POL-0018, Product ([2]; 1 Month): Conforms | Assay TM-22-0392 (% Label Claim) ([2]; 1 Month): 98.8% | Total Impurities ([2]; 1 Month): 0.05% | Water Content by cKF TM-22-0012, Mean (2) ([2]; 1 Month): 0.9 % w/w | Water Content by cKF TM-22-0012, Prep 1 and 2 ([2]; 1 Month): 0.9 % w/w and 0.8 % w/w | Impurities TM-22-0392 (individual impurities) ([2]; 1 Month, impurity at RRT 1.11): RRT 1.11/0.05% | Appearance POL-0018, Product ([2]; 3 Months): Conforms | Assay TM-22-0392 (% Label Claim) ([2]; 3 Months): 101.1% | Total Impurities ([2]; 3 Months): <0.05% | Water Content by cKF TM-22-0012, Mean (2) ([2]; 3 Months): 1.6 % w/w | Water Content by cKF TM-22-0012, Prep 1 and 2 ([2]; 3 Months): 2.0 % w/w and 1.1 % w/w | Impurities TM-22-0392 (individual impurities) ([2]; 3 Months, all impurities): All < 0.05% | Appearance POL-0018, Product ([2]; 5 Months): Conforms | Assay TM-22-0392 (% Label Claim) ([2]; 5 Months): 103.2% | Total Impurities ([2]; 5 Months): <0.05% | Water Content by cKF TM-22-0012, Mean (2) ([2]; 5 Months): 1.3 % w/w | Water Content by cKF TM-22-0012, Prep 1 and 2 ([2]; 5 Months): 1.2 % w/w and 1.3 % w/w | Impurities TM-22-0392 (individual impurities) ([2]; 5 Months, all impurities): All < 0.05% | Appearance POL-0018, Product ([2]; 6 Months): Conforms | Assay TM-22-0392 (% Label Claim) ([2]; 6 Months): 98.8% | Total Impurities ([2]; 6 Months): <0.05% | Water Content by cKF TM-22-0012, Mean (2) ([2]; 6 Months): 1.4 % w/w | Water Content by cKF TM-22-0012, Prep 1 and 2 ([2]; 6 Months): 1.4 % w/w | Impurities TM-22-0392 (individual impurities) ([2]; 6 Months, all impurities): All < 0.05% | Appearance POL-0018, Product ([2]; 12 Months): Conforms | Assay TM-22-0392 (% Label Claim) ([2]; 12 Months): 98.4% | Total Impurities ([2]; 12 Months): <0.05% | Water Content by cKF TM-22-0012, Mean (2) ([2]; 12 Months): 1.3 % w/w | Water Content by cKF TM-22-0012, Prep 1 and 2 ([2]; 12 Months): 1.2 % w/w and 1.3 % w/w | Impurities TM-22-0392 (individual impurities) ([2]; 12 Months, all impurities): All < 0.05% | Total Impurities ([2]; Initial): 0.08% | Water Content by cKF TM-22-0012, Mean (2) ([2]; Initial): 1.2 % w/w | Impurities TM-22-0392 (individual impurities) ([2]; Initial, impurity at RRT 1.12): RRT 1.12/0.08% | Assay TM-22-0392 (% Label Claim) ([2]; Initial, specification 90.0-110.0%): 98.8% | Water Content by cKF TM-22-0012, Prep 1 and 2 ([2]; Initial, specification NMT 10.0%): 1.1 % w/w and 1.2 % w/w | Appearance POL-0018, Product ([2]; Initial, specification white to light brown powder partially filling white opaque capsules): Conforms | FEELING STATUS (healthy subjects; individual subjects 01-10, single oral capsule, 2 mg psilocin equivalent, assessed by psychiatrist): Feel little beet happier, better; also recorded: Feel calm, less thoughts, happier; also recorded: Euphoric, better mood, it helps with; also recorded: Euphories, better mood, sleepy, feel; also recorded: Sleepy, better thoughts, less worried; also recorded: Did not feel change in mood but feeling; also recorded: More relaxed, want to drink sweet; also recorded: Better mood, feels hyper sexual; also recorded: Felt high mood, now they feel in good; also recorded: Less anxious, better mood, increase | MMSE (healthy subjects; individual subjects 01-10, single oral capsule, 2 mg psilocin equivalent, hallucinogenic substance expected to lower score below 25): 30 (3×) and 28 (3×) and 27 (2×) and 29 (2×) | adverse events: dizziness (healthy subjects; [6]): one subject reported slight and transient dizziness | serious adverse effects (healthy subjects; [6]): no serious adverse effects were reported | subjects with no hallucinogenic effect (healthy subjects; [6]): 9 of the 10 | Functional observation battery (Swiss Albino Mice; [7]): No treatment related effects were observed | Mortality and morbidity check (Swiss Albino Mice; [7]): No mortality or morbidity was observed at any dose level | effects on general health, body weight, feed consumption, clinical pathology, gross pathology and histopathology (Swiss Albino Mice; 28 consecutive days, both sexes): no psilocin mucate related effects | Histopathology, overall (Swiss Albino Mice; G1 and G4 main group organs/tissues): no psilocin mucate related histopathological changes | histopathological lesions (background findings) (Swiss Albino Mice; G4 female, considered toxicologically irrelevant): single incidence of cortical cyst (unilateral) in kidneys; also recorded: presence of luteal cyst (unilateral) in ovaries | AChE (Swiss Albino Mice; G4 male and G3 female animals vs vehicle control, considered non-psilocin mucate related): statistically significant increase | body weight gain (Swiss Albino Mice; G4 males (20 mg/kg bw/day), day 1-8, vs control, not considered adverse): statistically significant decrease | net body weight gain (day 1 to day 43) (Swiss Albino Mice; G4 recovery females vs control, not due to treatment): statistically significant increase | foot splay measurement (Swiss Albino Mice; G4 recovery group females (20 mg/kg bw/day), last day of recovery, vs control, considered random biological variation): statistically significant increase | Gross pathology (Swiss Albino Mice; all groups, both sexes): No gross changes were observed | Clinical chemistry parameters, overall (Swiss Albino Mice; both sexes): No psilocin mucate related changes were observed | Hematology parameters, overall (Swiss Albino Mice; both sexes): No psilocin mucate related changes were observed | Coagulation parameters (Swiss Albino Mice; both sexes, main and recovery group): No statistically significant changes were observed | total bile acids (Swiss Albino Mice; females G3 and G4 vs G1, considered not related): statistically significant increase | aspartate aminotransferase and inorganic phosphorous (Swiss Albino Mice; [8]): decrease | creatinine, total protein, albumin and calcium (Swiss Albino Mice; [8]): increase | mean corpuscular hemoglobin (Swiss Albino Mice; [8]): increase | relative adrenals and brain weight (Swiss Albino Mice; [8]): decrease | absolute and relative thymus weight (Swiss Albino Mice; females G4 vs G1, considered not related): statistically significant increase | white blood cells and platelets (Swiss Albino Mice; females G4 vs vehicle control, considered not related): statistically significant increase | Ophthalmological examination (Swiss Albino Mice; main and recovery group animals): No ocular abnormalities were observed | relative eosinophil count (Swiss Albino Mice; males G2 and G4 vs vehicle control G1, considered not related): statistically significant decrease | chloride (Swiss Albino Mice; males G3 vs G1, considered not related): decrease | absolute and relative lungs weight and absolute prostate with seminal vesicles and coagulating gland weight (Swiss Albino Mice; [9]): statistically significant decrease | red blood cells and hemoglobin (Swiss Albino Mice; [9]): statistically significant increase | reticulocytes (Swiss Albino Mice; [9]): decrease | inorganic phosphorous (Swiss Albino Mice; males G4 vs vehicle control, considered not related): statistically significant increase | feed consumption (Swiss Albino Mice; males, G4 recovery group, day 29-36, vs control, considered incidental): statistically significant increase | Acetyl cholinesterase (AChE) level, overall (Swiss Albino Mice; mouse, in vivo): No psilocin mucate related changes were observed | NOAEL translated to a dose for an average person of 70 kg (Swiss Albino Mice; mouse, in vivo): 1,400 mg | Urinalysis parameters, overall (Swiss Albino Mice; mouse, in vivo): No psilocin mucate related changes were observed | NOAEL (Swiss Albino Mice; oral gavage, 28 consecutive days): 20 mg/kg bw/day | urine pH (Swiss Albino Mice; recovery female group (G4R) vs vehicle control recovery group, considered not related): statistically significant decrease | Clinical signs and detailed clinical signs observation (Swiss Albino Mice; treatment and recovery period): No clinical signs of toxicity were observed

CN(C)CCc1c[nH]c2cccc(OP(=O)(O)O)c12 [psilocybin]
lethal dose 50% (LD50) [3]: 285 mg/kg | AUC [4, 10]: 32.71 μG H/L | Tmax [4, 10]: 1.75 h | Cmax ([4]; 0.224 mg/kg p.o. PY fasted by Hasler, psilocin dose 0.161 mg/kg p.o.): 8.2 ng/mL | AUC ([4]; 1 mg i.v. PY by Hasler): 4 μG H/L | Tmax ([4]; 1 mg i.v. PY by Hasler): 0.0317 h | Cmax ([4]; 1 mg i.v. PY by Hasler, psilocin dose 0.718 mg, 0.01 mg/kg i.v.): 12.9 ng/mL | AUC ([4]; 25 mg p.o. PY fasted by Holze): 83 μG H/L | Tmax ([4]; 25 mg p.o. PY fasted by Holze): 1.9 h | Cmax ([4]; 25 mg p.o. PY fasted by Holze, psilocin dose 17.95 mg, 0.256 mg/kg): 17 ng/mL | bioavailability, generally reported ([4]; varies from paper to paper): 50-80%
